Measured values taken from PubChem BioAssay AID2060498 (Molecular Pharmacology Branch, DTP, NCI, 2025).

Test system: 171881-019-R-J1-PDC tumor spheroids, viability
Experiment: Anticancer human tumor 171881-019-R-J1-PDC patient-derived invasive breast carcinoma cell line growth inhibition [GQUAD]
Settings: spheroids with HUVEC and MSC; for IC50: curve of first compound; for viability, T/C: stronger effect = lower value
In short: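 Multi-cell-type spheroids of tumor cells with HUVEC and mesenchymal stem cells, treated with drug combinations. Concentrations descend in half-log steps from near clinical Cmax, or from 10 microM where Cmax is unknown; viability read-out.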

[1] = second compound 0.0316 µM, first compound 0.000999 µM
[2] = second compound 0.0316 µM, first compound 0.00316 µM
[3] = second compound 0.0316 µM, first compound 0.00999 µM
[4] = second compound 0.0316 µM, first compound 0.0316 µM
[5] = second compound 0.0316 µM, first compound 0.0999 µM
[6] = second compound 0.0316 µM, first compound 0.316 µM
[7] = second compound 0.1 µM, first compound 0.000999 µM
[8] = second compound 0.1 µM, first compound 0.00316 µM
[9] = second compound 0.1 µM, first compound 0.00999 µM
[10] = second compound 0.1 µM, first compound 0.0316 µM
[11] = second compound 0.1 µM, first compound 0.0999 µM
[12] = second compound 0.1 µM, first compound 0.316 µM
[13] = second compound 0.316 µM, first compound 0.000999 µM
[14] = second compound 0.316 µM, first compound 0.00316 µM
[15] = second compound 0.316 µM, first compound 0.00999 µM
[16] = second compound 0.316 µM, first compound 0.0316 µM
[17] = second compound 0.316 µM, first compound 0.0999 µM
[18] = second compound 0.316 µM, first compound 0.316 µM
[19] = second compound 1 µM, first compound 0.000999 µM
[20] = second compound 1 µM, first compound 0.00316 µM
[21] = second compound 1 µM, first compound 0.00999 µM
[22] = second compound 1 µM, first compound 0.0316 µM
[23] = second compound 1 µM, first compound 0.0999 µM
[24] = second compound 1 µM, first compound 0.316 µM
[25] = second compound 3.16 µM, first compound 0.000999 µM
[26] = second compound 3.16 µM, first compound 0.00316 µM
[27] = second compound 3.16 µM, first compound 0.00999 µM
[28] = second compound 3.16 µM, first compound 0.0316 µM
[29] = second compound 3.16 µM, first compound 0.0999 µM
[30] = second compound 3.16 µM, first compound 0.316 µM
[31] = second compound 10 µM, first compound 0.000999 µM
[32] = second compound 10 µM, first compound 0.00316 µM
[33] = second compound 10 µM, first compound 0.00999 µM
[34] = second compound 10 µM, first compound 0.0316 µM
[35] = second compound 10 µM, first compound 0.0999 µM
[36] = second compound 10 µM, first compound 0.316 µM
[37] = second compound 0.0316 µM, first compound 0.1 µM
[38] = second compound 0.0316 µM, first compound 1 µM
[39] = second compound 0.0316 µM, first compound 3.16 µM
[40] = second compound 0.0316 µM, first compound 10 µM
[41] = second compound 0.1 µM, first compound 0.1 µM
[42] = second compound 0.1 µM, first compound 1 µM
[43] = second compound 0.1 µM, first compound 3.16 µM
[44] = second compound 0.1 µM, first compound 10 µM
[45] = second compound 0.316 µM, first compound 0.1 µM
[46] = second compound 0.316 µM, first compound 1 µM
[47] = second compound 0.316 µM, first compound 3.16 µM
[48] = second compound 0.316 µM, first compound 10 µM
[49] = second compound 1 µM, first compound 0.1 µM
[50] = second compound 1 µM, first compound 1 µM
[51] = second compound 1 µM, first compound 3.16 µM
[52] = second compound 1 µM, first compound 10 µM
[53] = second compound 3.16 µM, first compound 0.1 µM
[54] = second compound 3.16 µM, first compound 1 µM
[55] = second compound 3.16 µM, first compound 3.16 µM
[56] = second compound 3.16 µM, first compound 10 µM
[57] = second compound 10 µM, first compound 0.1 µM
[58] = second compound 10 µM, first compound 1 µM
[59] = second compound 10 µM, first compound 3.16 µM
[60] = second compound 10 µM, first compound 10 µM
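Note: spheroids exposed to compounds for 7 days.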
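Throughout, for viability, T/C: 100% = DMSO vehicle control viability.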

CC[C@@]1(O)C(=O)OCc2c1cc1n(c2=O)Cc2cc3c(CN(C)C)c(O)ccc3nc2-1 + CN(C)c1ccc(Nc2c3ccc(NC(=O)CCN4CCCC4)cc3nc3cc(NC(=O)CCN4CCCC4)ccc23)cc1
IC50 (second compound 0.0316 µM): 0.255 µM | IC50 (second compound 0.1 µM): 0.251 µM | IC50 (second compound 0.316 µM): 0.189 µM | IC50 (second compound 1 µM): < 0.000999 µM | IC50 (second compound 3.16 µM): < 0.000999 µM | IC50 (second compound 10 µM): < 0.000999 µM | viability, T/C [1]: 110% | viability, T/C [2]: 108% | viability, T/C [3]: 105% | viability, T/C [4]: 99.5% | viability, T/C [5]: 57.8% | viability, T/C [6]: 48.3% | viability, T/C [7]: 110% | viability, T/C [8]: 112% | viability, T/C [9]: 93.9% | viability, T/C [10]: 115% | viability, T/C [11]: 61.9% | viability, T/C [12]: 47% | viability, T/C [13]: 85% | viability, T/C [14]: 85.3% | viability, T/C [15]: 63.3% | viability, T/C [16]: 70.7% | viability, T/C [17]: 60.6% | viability, T/C [18]: 42.4% | viability, T/C [19]: 23.9% | viability, T/C [20]: 14.9% | viability, T/C [21]: 17.4% | viability, T/C [22]: 11.6% | viability, T/C [23]: 10.3% | viability, T/C [24]: 14.4% | viability, T/C [25]: 2.23% | viability, T/C [26]: 1.91% | viability, T/C [27]: 2.49% | viability, T/C [28]: 1.45% | viability, T/C [29]: 2.03% | viability, T/C [30]: 1.84% | viability, T/C [31]: 0.21% | viability, T/C [32]: 1.05% | viability, T/C [33]: 0.53% | viability, T/C [34]: 0.24% | viability, T/C [35]: 0.6% | viability, T/C [36]: 0.58%

COc1cccc2c1C(=O)c1c(O)c3c(c(O)c1C2=O)CC(O)(C(=O)CO)CC3OC1CC(N)C(O)C(C)O1 (stereo not drawn) + CN(C)c1ccc(Nc2c3ccc(NC(=O)CCN4CCCC4)cc3nc3cc(NC(=O)CCN4CCCC4)ccc23)cc1
IC50 (second compound 0.0316 µM): 0.261 µM | IC50 (second compound 0.1 µM): 0.263 µM | IC50 (second compound 0.316 µM): 0.229 µM | IC50 (second compound 1 µM): < 0.0316 µM | IC50 (second compound 3.16 µM): < 0.0316 µM | IC50 (second compound 10 µM): < 0.0316 µM | viability, T/C [4]: 93.9% | viability, T/C [37]: 66.6% | viability, T/C [6]: 51.4% | viability, T/C [38]: 19.9% | viability, T/C [39]: 0.2% | viability, T/C [40]: 0.24% | viability, T/C [10]: 109% | viability, T/C [41]: 68.2% | viability, T/C [12]: 54.4% | viability, T/C [42]: 20.2% | viability, T/C [43]: 0.28% | viability, T/C [44]: 0.36% | viability, T/C [16]: 70.2% | viability, T/C [45]: 55.2% | viability, T/C [18]: 47.6% | viability, T/C [46]: 10.7% | viability, T/C [47]: 0.27% | viability, T/C [48]: 0.33% | viability, T/C [22]: 11.5% | viability, T/C [49]: 11.2% | viability, T/C [24]: 7.77% | viability, T/C [50]: 2.02% | viability, T/C [51]: 0.44% | viability, T/C [52]: 0.64% | viability, T/C [28]: 1.52% | viability, T/C [53]: 2.29% | viability, T/C [30]: 1.63% | viability, T/C [54]: 0.4% | viability, T/C [55]: 0.14% | viability, T/C [56]: 0.51% | viability, T/C [34]: 0.38% | viability, T/C [57]: 0.25% | viability, T/C [36]: 0.32% | viability, T/C [58]: 0.18% | viability, T/C [59]: 0.29% | viability, T/C [60]: 0.26%

CCc1c2c(nc3ccc(O)cc13)-c1cc3c(c(=O)n1C2)COC(=O)[C@]3(O)CC + Cc1[nH]c2ccc(F)cc2c1-c1nc2c3cccnc3c3ncccc3c2[nH]1
IC50 (second compound 0.0316 µM): 0.00272 µM | IC50 (second compound 0.1 µM): 0.00274 µM | IC50 (second compound 0.316 µM): 0.00261 µM | IC50 (second compound 1 µM): 0.00224 µM | IC50 (second compound 3.16 µM): < 0.000999 µM | IC50 (second compound 10 µM): < 0.000999 µM | viability, T/C [1]: 80.3% | viability, T/C [2]: 42.4% | viability, T/C [3]: 35.7% | viability, T/C [4]: 33.1% | viability, T/C [5]: 25.8% | viability, T/C [6]: 23.3% | viability, T/C [7]: 78.6% | viability, T/C [8]: 43.2% | viability, T/C [9]: 35.6% | viability, T/C [10]: 33.8% | viability, T/C [11]: 28.5% | viability, T/C [12]: 22.6% | viability, T/C [13]: 74.4% | viability, T/C [14]: 42.9% | viability, T/C [15]: 34.8% | viability, T/C [16]: 33.4% | viability, T/C [17]: 27% | viability, T/C [18]: 23.4% | viability, T/C [19]: 66.6% | viability, T/C [20]: 39.5% | viability, T/C [21]: 34.4% | viability, T/C [22]: 27.8% | viability, T/C [23]: 23.6% | viability, T/C [24]: 18.7% | viability, T/C [25]: 19.9% | viability, T/C [26]: 14.7% | viability, T/C [27]: 14.6% | viability, T/C [28]: 11% | viability, T/C [29]: 10.2% | viability, T/C [30]: 7.94% | viability, T/C [31]: 32% | viability, T/C [32]: 33.6% | viability, T/C [33]: 25.1% | viability, T/C [34]: 19.4% | viability, T/C [35]: 17% | viability, T/C [36]: 12.5%

CC(C)(O)C1CCC(Nc2ccc3ncc(-c4cccc(C(F)(F)F)c4)n3n2)CC1 (stereo not drawn) + Cc1cnc(CNC(=O)c2c(=O)c3ccc(N4CCCN(C)CC4)nc3n3c2sc2ccccc23)cn1
IC50 (second compound 0.0316 µM): 1.62 µM | IC50 (second compound 0.1 µM): 1.71 µM | IC50 (second compound 0.316 µM): 1.47 µM | IC50 (second compound 1 µM): 1.19 µM | IC50 (second compound 3.16 µM): 1.07 µM | IC50 (second compound 10 µM): 0.927 µM | viability, T/C [4]: 95.8% | viability, T/C [37]: 87.5% | viability, T/C [6]: 89.5% | viability, T/C [38]: 69.7% | viability, T/C [39]: 18.2% | viability, T/C [40]: 26.9% | viability, T/C [10]: 88.7% | viability, T/C [41]: 83.8% | viability, T/C [12]: 70.9% | viability, T/C [42]: 73.4% | viability, T/C [43]: 19% | viability, T/C [44]: 27.2% | viability, T/C [16]: 76.5% | viability, T/C [45]: 76.7% | viability, T/C [18]: 72% | viability, T/C [46]: 63.1% | viability, T/C [47]: 21.9% | viability, T/C [48]: 25.7% | viability, T/C [22]: 71.9% | viability, T/C [49]: 65.2% | viability, T/C [24]: 72.9% | viability, T/C [50]: 56.3% | viability, T/C [51]: 13.6% | viability, T/C [52]: 18% | viability, T/C [28]: 65.4% | viability, T/C [53]: 60% | viability, T/C [30]: 63.1% | viability, T/C [54]: 53.1% | viability, T/C [55]: 0.32% | viability, T/C [56]: 0.82% | viability, T/C [34]: 59.3% | viability, T/C [57]: 62.5% | viability, T/C [36]: 58.1% | viability, T/C [58]: 49.3% | viability, T/C [59]: 0.4% | viability, T/C [60]: 0.62%
